Results from patent publication US20130136719A1, “COMPOUNDS AND METHODS FOR THE TREATMENT OR PREVENTION OF FLAVIVIRUS INFECTIONS” (VERTEX PHARMACEUTICALS INCORPORATED, priority 2009, published 2013).
Where two headings read alike, the source gives them in different places.

Key:
[1] = biological target: HCV RNA-dependent RNA polymerase (NS5B protein) (Hepatitis C virus genotype 1b, UniProt P26663); experiment: biochemical; design: species or system HCV-Bk strain
[2] = [3H]Thymidine incorporation assay (CC50); details: human
[3] = test system: HCV replicon (genotype 1b) in Huh7 cell line ET; experiment: microbe, parasite or virus in culture; type: cell-based, HCV genotype 1b; details: read-out: HCV-Replicon-Luci-Et-1b_IC50
[4] = test system: HCV sub-genomic replicon of genotype 1a in cell line W11.8; experiment: microbe, parasite or virus in culture; type: cell-based, HCV genotype 1a; details: Hepatitis C virus, W11.8, 96 h, read-out: HCV-Replicon-ELISA-1a IC50

Sequence of HCV RNA-dependent RNA polymerase (NS5B protein) (P26663 2420-2989 limits assumed): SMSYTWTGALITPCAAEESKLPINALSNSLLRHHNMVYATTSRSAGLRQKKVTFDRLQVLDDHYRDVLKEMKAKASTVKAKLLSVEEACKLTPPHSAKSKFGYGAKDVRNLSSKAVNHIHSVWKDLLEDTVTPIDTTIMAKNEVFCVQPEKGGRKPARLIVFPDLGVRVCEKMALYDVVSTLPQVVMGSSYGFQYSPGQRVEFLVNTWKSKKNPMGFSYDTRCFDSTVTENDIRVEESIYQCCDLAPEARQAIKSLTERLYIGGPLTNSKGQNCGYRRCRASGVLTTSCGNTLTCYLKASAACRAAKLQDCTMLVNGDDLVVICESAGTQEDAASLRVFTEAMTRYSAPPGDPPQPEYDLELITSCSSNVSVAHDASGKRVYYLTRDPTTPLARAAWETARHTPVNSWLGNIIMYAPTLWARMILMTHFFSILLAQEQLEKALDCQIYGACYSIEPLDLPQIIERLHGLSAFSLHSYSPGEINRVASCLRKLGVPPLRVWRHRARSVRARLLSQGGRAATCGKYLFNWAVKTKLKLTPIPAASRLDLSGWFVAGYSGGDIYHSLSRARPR

SMILES	IC50 [1]	CC50 at 72 h [2]	IC50 ([3]; Hepatitis C virus, Huh-7, 96 h)	IC50 ([1]; read-out: HCV Polymerase_1b IC50, recombinant truncated NS5B genotype 1b, poly rA/oligo dT, [3H]UTP SPA)	IC50 [3]	IC50 [4]
CC(C)(C)C#Cc1cc(N(C(=O)c2ccc(F)cc2)[C@H]2CC[C@H](O)CC2)c(C(=O)O)s1 [Compound 51, 5-(3,3-Dimethyl-but-1-ynyl)-3-[(4-fluoro-benzoyl)-(trans-4-hydroxy-cyclohexyl)-amino]-thiophene-2-carboxylic acid]	1000 to 10000 nM	> 100000 nM				
Cc1ccc(C(=O)N(c2cc(C#CC(C)(C)C)sc2C(=O)O)[C@H]2CC[C@H](O)CC2)cc1 [Compound 19, 5-(3,3-Dimethyl-but-1-ynyl)-3-[(trans-4-hydroxy-cyclohexyl)-(4-methyl-benzoyl)-amino]-thiophene-2-carboxylic acid]	1000 to 10000 nM					
Cc1ccc(C(=O)N(c2cc(C#CC(C)(C)C)sc2C(=O)O)[C@H]2CC[C@H](O)CC2)c(F)c1 [Compound 54, 5-(3,3-Dimethyl-but-1-ynyl)-3-[(2-fluoro-4-methyl-benzoyl)-(trans-4-hydroxy-cyclohexyl)-amino]-thiophene-2-carboxylic acid]	1000 to 10000 nM					
Cc1ccccc1C(=O)N(c1cc(C#CC(C)(C)C)sc1C(=O)O)[C@H]1CC[C@H](O)CC1 [Compound 88, 5-(3,3-Dimethyl-but-1-ynyl)-3-[(trans-4-hydroxy-cyclohexyl)-(2-methyl-benzoyl)-amino]-thiophene-2-carboxylic acid]	1000 to 10000 nM	> 100000 nM				
CC(C)(C)C#Cc1cc(N(CCO)C(=O)c2ccc(Cl)cc2Cl)c(C(=O)O)s1 [Compound 97, 3-[(2,4-Dichloro-benzoyl)-(2-hydroxy-ethyl)-amino]-5-(3,3-dimethyl-but-1-ynyl)-thiophene-2-carboxylic acid]	100 to 1000 nM	10000 to 100000 nM	100 to 1000 nM			
Cc1ccc(C(=O)N(c2cc(C#CC(C)(C)C)sc2C(=O)O)[C@H]2CC[C@H](O)CC2)c(C)c1 [Compound 18, 3-[(2,4-Dimethyl-benzoyl)-(trans-4-hydroxy-cyclohexyl)-amino]-5-(3,3-dimethyl-but-1-ynyl)-thiophene-2-carboxylic acid]	100 to 1000 nM	10000 to 100000 nM	< 100 nM			
CC(C)(C)C#Cc1cc(N(C(=O)c2ccc(Cl)cc2Cl)C2CCOCC2)c(C(=O)O)s1 [Compound 26, 3-[(2,4-Dichloro-benzoyl)-(tetrahydro-pyran-4-yl)-amino]-5-(3,3-dimethyl-but-1-ynyl)-thiophene-2-carboxylic acid]	1000 to 10000 nM	10000 to 100000 nM	< 100 nM			
CC(C)N(C(=O)c1ccc(Cl)cc1Cl)c1cc(C#CC(C)(C)C)sc1C(=O)O [Compound 1, 3-[(2,4-Dichloro-benzoyl)-isopropyl-amino]-5-(3,3-dimethyl-but-1-ynyl)-thiophene-2-carboxylic acid]				100 to 1000 nM	100 to 1000 nM	
CC(C)(C)C#Cc1cc(N(C(=O)c2ccc(Cl)c(F)c2)[C@H]2CC[C@H](O)CC2)c(C(=O)O)s1 [Compound 52, 3-[(4-Chloro-3-fluoro-benzoyl)-(trans-4-hydroxy-cyclohexyl)-amino]-5-(3,3-dimethyl-but-1-ynyl)-thiophene-2-carboxylic acid]	1000 to 10000 nM	10000 to 100000 nM				
CC(C)(C)C#Cc1cc(N(C(=O)c2ccc(Cl)cc2)[C@H]2CC[C@H](O)CC2)c(C(=O)O)s1 [Compound 16, 3-[(4-Chloro-benzoyl)-(trans-4-hydroxy-cyclohexyl)-amino]-5-(3,3-dimethyl-but-1-ynyl)-thiophene-2-carboxylic acid]	100 to 1000 nM	10000 to 100000 nM				
Cc1ccc(C(=O)N(c2cc(C#CC(C)(C)C)sc2C(=O)O)[C@H]2CC[C@H](O)CC2)c(Cl)c1 [Compound 53, 3-[(2-Chloro-4-methyl-benzoyl)-(trans-4-hydroxy-cyclohexyl)-amino]-5-(3,3-dimethyl-but-1-ynyl)-thiophene-2-carboxylic acid]	1000 to 10000 nM	10000 to 100000 nM				
Cc1ccc(C(=O)N(c2cc(C#CC(C)(C)C)sc2C(=O)O)[C@H]2CC[C@H](O)CC2)c(F)c1F [Compound 89, 3-[(2,3-Difluoro-4-methyl-benzoyl)-(trans-4-hydroxy-cyclohexyl)-amino]-5-(3,3-dimethyl-but-1-ynyl)-thiophene-2-carboxylic acid]	1000 to 10000 nM	10000 to 100000 nM				
CC(C)(C)C#Cc1cc(N(C(=O)c2ccc(Cl)cc2F)[C@H]2CC[C@H](O)CC2)c(C(=O)O)s1 [Compound 17, 3-[(4-Chloro-2-fluoro-benzoyl)-(trans-4-hydroxy-cyclohexyl)-amino]-5-(3,3-dimethyl-but-1-ynyl)-thiophene-2-carboxylic acid]	1000 to 10000 nM		< 100 nM			
Cc1ccc(C(=O)N(c2cc(C#CC(C)(C)C)sc2C(=O)O)[C@H]2CC[C@H](O)CC2)cc1F [Compound 24, 5-(3,3-Dimethyl-but-1-ynyl)-3-[(3-fluoro-4-methyl-benzoyl)-(trans-4-hydroxy-cyclohexyl)-amino]-thiophene-2-carboxylic acid]	1000 to 10000 nM	10000 to 100000 nM	< 100 nM			
CC(C)N(C(=O)c1ccc(Cl)cc1Cl)c1cc(C#CC(C)(C)C)sc1C(=O)O [Compound 96, Sodium 3-[(2,4-dichloro-benzoyl)-isopropyl-amino]-5-(3,3-dimethyl-but-1-ynyl)-thiophene-2-carboxylate]	100 to 1000 nM	10000 to 100000 nM	< 100 nM			
COCCN(C(=O)c1ccc(Cl)cc1Cl)c1cc(C#CC(C)(C)C)sc1C(=O)O [Compound 44, 3-[(2,4-Dichloro-benzoyl)-(2-methoxy-ethyl)-amino]-5-(3,3-dimethyl-but-1-ynyl)-thiophene-2-carboxylic acid]	100 to 1000 nM	10000 to 100000 nM	< 100 nM			100 to 1000 nM
CC(C)(C)C#Cc1cc(N(C(=O)c2ccc(Cl)cc2Cl)[C@H]2CC[C@H](O)CC2)c(C(=O)O)s1 [Compound 2, 3-[(2,4-Dichloro-benzoyl)-(trans-4-hydroxy-cyclohexyl)-amino]-5-(3,3-dimethyl-but-1-ynyl)-thiophene-2-carboxylic acid]	100 to 1000 nM		< 100 nM			
CC(C)(C)C#Cc1cc(N(C(=O)c2ccc(C(F)(F)F)cc2)[C@H]2CC[C@H](O)CC2)c(C(=O)O)s1 [Compound 22]	1000 to 10000 nM					
CC(C)(C)C#Cc1cc(N(C(=O)c2ccccc2Cl)[C@H]2CC[C@H](O)CC2)c(C(=O)O)s1 [Compound 87, 3-[(2-Chloro-benzoyl)-(trans-4-hydroxy-cyclohexyl)-amino]-5-(3,3-dimethyl-but-1-ynyl)-thiophene-2-carboxylic acid]	1000 to 10000 nM	> 100000 nM				
